Assay results reported in US9624167B2, “N-(4-hydroxy-4-methyl-cyclohexyl)-4-phenyl-benzenesulfonamides and N-(4-hydroxy-4-methyl-cyclohexyl)-4-(2-pyridyl)benzenesulfonamides and their therapeutic use” (PIMCO 2664 LIMITED, priority 2013, dated 2017).
Marks after values point to notes of the source that are not given here.

Columns and labels:
[1] = Rodent pharmacokinetics study; assay type: in vivo, Sprague-Dawley rats; settings: rat; for p.o. AUC: dosed at 10 mg/kg orally (‡)
[2] = system: collagen-induced arthritis; assay: Mouse Collagen-Induced Arthritis; assay type: in vivo, DBA/1j mice
Procedure: Seven- to eight-week-old male DBA/1j mice were used for all procedures. Animals were housed in groups of 10, and were maintained at 21° C.±2° C. on a 12-hour light/dark cycle with food and water ad libitum. […]. All mice were immunised subcutaneously with 200 μg of bovine type II collagen in CFA. 21 days later, all mice were immunised subcutaneously with 100 μg of bovine type II collagen in IFA.
The mice started to develop signs and symptoms of arthritis following the ‘booster’ immunisation.
For macroscopic assessment of arthritis, the following signs were monitored in each paw of each mouse three times per week and summed to generate the Arthritic Index (AI) (the maximum AI for one animal is 16): • 0=no visible effects of arthritis. • 1=oedema and/or erythema of 1 digit. • 2=oedema and/or erythema of 2 digits. • 3=oedema and/or erythema of more than 2 digits. • 4=severe arthritis of entire paw and digits.
Animals were sorted into treatment groups with a mean arthritic index of 2.5 and then dosed once daily for 14 days with compound by oral gavage for test compounds, or by subcutaneous injection at a dose of 10 mg/kg for the positive control, etanercept. After completion of the experiment, the mice were sacrificed.
(§1) The data were analysed by generating an average of the arthritic index across each treatment group. The mean arthritic index was then compared to the arthritic index of control (untreated) animals using the following formula to generate a percentage inhibition of disease.

[3] = system: pristane-induced arthritis; assay: Rat Pristane-Induced Arthritis Study; assay type: in vivo; settings: for % inhibition of disease: once daily for 28 days; for Tolerability during extended dosing: rat pristane-induced arthritis study, oral, up to 28 days
Procedure: Female Lewis rats were used for all procedures. Animals were housed in groups of 5, and were maintained at 21° C.±2° C. on a 12-hour light/dark cycle with food and water ad libitum. Arthritis was induced by the administration of 0.3 mL pristane intra-dermally at the base of the tail. The rats started to develop signs and symptoms of arthritis approximately seven days after the pristane injection.
For macroscopic assessment of arthritis, the following signs were monitored in each paw of each mouse three times per week and summed to generate the Arthritic Index (AI) (the maximum AI for one animal is 16): • 0=no visible effects of arthritis. • 1=oedema and/or erythema of 1 digit. • 2=oedema and/or erythema of 2 digits. • 3=oedema and/or erythema of more than 2 digits. • 4=severe arthritis of entire paw and digits including limb deformation and ankylosis of the joint.
Animals were sorted into treatment groups prior to pristane administration and dosed once daily for 28 days with test compound at doses of 3 and 10 mg/kg/day by oral gavage, or by intraperitoneal injection at a dose of 0.05 mg/kg for the positive control, methotrexate. After completion of the experiment, the rats were sacrificed.
as §1

Neutrophils = assay: Human primary leucocyte viability: neutrophils; assay type: cell-based; settings: 3 μM, 24 hours
Procedure: (§2) The effects of the reference compound (ABD735) on the viability of neutrophils, monocytes, CD4+ and CD8+ T-cells and B-lymphocytes was assessed under both resting and stimulated conditions. Resting conditions were used to assess likely effects on normal cells found in human blood, and stimulated conditions were used to assess the effects of the compound under disease conditions.
(§3) Effects on cell viability were assessed using flow cytometry. Flow cytometry is a laser-based, biophysical technology employed in cell counting, cell sorting, and biomarker detection, by suspending cells in a stream of fluid and passing them by an electronic detection apparatus. It allows simultaneous multi-parametric analysis of the physical and chemical characteristics of up to thousands of particles per second. The sorting of cells using flow cytometry requires the use of specific cell markers. To quantify cell numbers, counting beads are used as an internal standard. […] In addition, for B- and T-lymphocytes, cell proliferation was measured using a dye known as Cell Proliferation Dye (eFluor® 450). eFluor® 450 is an organic dye which can be conjugated to cell-specific markers. […]
(§4) The average results (n=3) for the reference compound (ABD735) were expressed as a fold change versus the average control value. […]

B-lymphocytes = assay: Human primary leucocyte viability: B-lymphocytes; assay type: cell-based; settings: 3 μM
Procedure: as §2, §3, §4

[4] = dosed at 0.5 mg/kg intravenously (*)
[5] = 10 mg/kg/day oral gavage, once daily for 14 days, arthritic index vs control
[6] = dosed at 2 mg/kg intravenously (†)

## C[C@]1(O)CC[C@@H](NS(=O)(=O)c2ccc(-c3ccc(F)cc3F)c(F)c2)CC1 [HMC-C-04-B, 2,2′,4′-Trifluoro-N-((1s,4s)-4-hydroxy-4-methylcyclohexyl)-[1,1′-biphenyl]-4-sulfonamide]
[1]; [4]
  i.v. AUC: 1589* ng·min/mL

## C[C@]1(O)CC[C@@H](NS(=O)(=O)c2ccc(-c3ncc(F)cc3F)c(F)c2)CC1 [HMC-N-01-B, 4-(3,5-Difluoropyridin-2-yl)-3-fluoro-N-((1s,4s)-4-hydroxy-4-methylcyclohexyl)benzenesulfonamide]
[2]; dose reduced from 10 to 1 mg/kg/day due to mortality, oral gavage
  % inhibition of disease: 38%

## C[C@]1(O)CC[C@@H](NS(=O)(=O)c2ccc(-c3c(F)cc(F)cc3F)cc2)CC1 [HMC-C-03-B, 2′,4′,6′-Trifluoro-N-((1s,4s)-4-hydroxy-4-methylcyclohexyl)-[1,1′-biphenyl]-4-sulfonamide]
[1]; [4]
  i.v. AUC: 816* ng·min/mL

## C[C@]1(O)CC[C@@H](NS(=O)(=O)c2ccc(-c3ccc(Cl)cc3C#N)cc2)CC1 [HMC-C-01-B, 4′-Chloro-2′-cyano-N-((1s,4s)-4-hydroxy-4-methylcyclohexyl)-[1,1′-biphenyl]-4-sulfonamide]
[2]; [5]
  % inhibition of disease: 26%

## C[C@]1(O)CC[C@@H](NS(=O)(=O)c2ccc(-c3ncc(Cl)cc3Cl)cc2)CC1 [HMC-N-03-B, 4-(3,5-Dichloropyridin-2-yl)-N-((1s,4s)-4-hydroxy-4-methylcyclohexyl)benzenesulfonamide]
[1]; [4]
  i.v. AUC: 1380* ng·min/mL

## C[C@]1(O)CC[C@H](NS(=O)(=O)c2ccc(-c3ccc(Cl)cc3C#N)cc2)CC1 [HMC-C-01-A, 4′-Chloro-2′-cyano-N-((1r,4r)-4-hydroxy-4-methylcyclohexyl)biphenyl-4-sulfonamide]
[3]; 3 mg/kg/day oral gavage
  % inhibition of disease: 40%
[3]; 10 mg/kg/day oral gavage
  % inhibition of disease: 67%
[3]; methotrexate 0.05 mg/kg intraperitoneal
  Efficacy compared with positive control methotrexate: equivalent to that of the marketed first-line therapy for rheumatoid arthritis, methotrexate
[3]
  Tolerability during extended dosing: tolerated well
[2]; 0.3 mg/kg/day oral gavage, once daily for 14 days
  % inhibition of disease: 60%
[2]; 1 mg/kg/day oral gavage, once daily for 14 days
  % inhibition of disease: 50%
[2]; 3 mg/kg/day oral gavage, once daily for 14 days
  % inhibition of disease: 60%
[2]; [5]
  % inhibition of disease: 40%
[2]; low doses (0.3 and 3 mg/kg/day) vs etanercept 10 mg/kg subcutaneous
  Efficacy compared with positive control etanercept: greater efficacy than the marketed treatment, etanercept, at low doses

## Cc1cc(S(=O)(=O)N[C@H]2CC[C@H](O)CC2)ccc1-c1ccc(F)cc1F [ABD735]
[1]
  p.o. AUC: 8965 ng·min/mL
Neutrophils; Dexamethasone
  Fold change in viability: 0.8
Neutrophils; no stimulation
  Fold change in viability: 1.0
[2]; [5]
  % inhibition of disease: 44%
B-lymphocytes; SAC/IL-2, 48 hours
  Fold change in viability: 1.1
B-lymphocytes; no stimulation, 48 hours
  Fold change in viability: 0.9

## C[C@]1(O)CC[C@H](NS(=O)(=O)c2ccc(-c3ncc(F)cc3F)cc2)CC1 [HMC-N-02-A, 4-(3,5-Difluoropyridin-2-yl)-N-((1r,4r)-4-hydroxy-4-methylcyclohexyl)benzenesulfonamide]
[1]; [6]
  i.v. AUC: 3053 ng·min/mL
[2]; [5]
  % inhibition of disease: 36%

## C[C@]1(O)CC[C@H](NS(=O)(=O)c2ccc(-c3ncc(F)cc3F)c(F)c2)CC1 [HMC-N-01-A, 4-(3,5-Difluoropyridin-2-yl)-3-fluoro-N-((1r,4r)-4-hydroxy-4-methylcyclohexyl)benzenesulfonamide]
[3]; 3 mg/kg/day oral gavage
  % inhibition of disease: 39%
[3]; 10 mg/kg/day oral gavage
  % inhibition of disease: 60%
[3]
  Tolerability during extended dosing: tolerated well
[2]; [5]
  % inhibition of disease: 45%

## C[C@]1(O)CC[C@H](NS(=O)(=O)c2ccc(-c3ncc(Cl)cc3Cl)cc2)CC1 [HMC-N-03-A, 4-(3,5-Dichloropyridin-2-yl)-N-((1r,4r)-4-hydroxy-4-methylcyclohexyl)benzenesulfonamide]
[1]; [6]
  i.v. AUC: 5102 ng·min/mL

## Cc1cc(S(=O)(=O)NC2CCC(C)(O)CC2)ccc1-c1ccc(F)cc1F (single isomer, unassigned) [REF001, reference compound]
[1]
  p.o. AUC: 4766 ng·min/mL

## C[C@]1(O)CC[C@@H](NS(=O)(=O)c2ccc(-c3ccc(F)cc3F)cc2)CC1 [ABD899, reference compound]
[1]
  p.o. AUC: 10740 ng·min/mL
[3]; 3 mg/kg/day oral gavage
  % inhibition of disease: 21%
[3]
  Tolerability during extended dosing: poorly tolerated
[2]; [5]
  % inhibition of disease: 77%

## C[C@]1(O)CC[C@H](NS(=O)(=O)c2ccc(-c3ccc(F)cc3C(F)(F)F)cc2)CC1 [HMC-C-02-A, 4′-Fluoro-N-((1r,4r)-4-hydroxy-4-methylcyclohexyl)-2′-(trifluoromethyl)biphenyl-4-sulfonamide]
[2]; [5]
  % inhibition of disease: 61%
